Source: article PMC7217877, “N-AS-triggered SPMs are direct regulators of microglia in a model of Alzheimer’s disease” (Nature Communications, 2020)
Where “and” joins values, the source holds several entries; their conditions need not be identical. Identical values can stand only once.

B1: Sphk1: purified sphingosine kinase1 enzyme (Cayman, 10348) supplemented to cell lysates (protein, UniProt Q9NYA1 1-384, looked up)
Sphingosine kinase 1: MDPAGGPRGVLPRPCRVLVLLNPRGGKGKALQLFRSHVQPLLAEAEISFTLMLTERRNHARELVRSEELGRWDALVVMSGDGLMHEVVNGLMERPDWETAIQKPLCSLPAGSGNALAASLNHYAGYEQVTNEDLLTNCTLLLCRRLLSPMNLLSLHTASGLRLFSVLSLAWGFIADVDLESEKYRRLGEMRFTLGTFLRLAALRTYRGRLAYLPVGRVGSKTPASPVVVQQGPVDAHLVPLEEPVPSHWTVVPDEDFVLVLALLHSHLGSEMFAAPMGRCAAGVMHLFYVRAGVSRAMLLRLFLAMEKGRHMEYECPYLVYVPVVAFRLEPKDGKGVFAVDGELMVSEAVQGQVHPNYFWMVSGCVEPPPSWKPQQMPPPEEPL

Tested on: neuron
Test: quantification of 15R-LXA4, RvE1, RvD1 in primary cells (LC-MS/MS)
Assay type: cell-based, C57BL/6 mice
Set-up: unit not given here
Conditions: replicates
Protocol: Lipid mediators metabololipidomics were performed according to previously described procedures with minor modifications[4],[30]. To confirm the biosynthesis of lipid mediators by recombinant COX2 treated with N-AS or aspirin, 10 U of human recombinant COX2 (Cayman, 60122) was incubated in the presence of 500 μM aspirin (Sigma-Aldrich, A5376) or N-AS (Sigma-Aldrich, 01912) at 37 °C for 30 min. The enzyme was filtered with a Microcon column (Millipore) to remove unreacted aspirin or N-AS and was then resuspended in 0.1 M Tris-HCl (pH 8.0). Next, 500 μM phenol (Sigma-Aldrich) and 1 μM hematin-porcine (Sigma-Aldrich) were added immediately before incubation with 100 μM AA, EPA or DHA (Cayman) at 37 °C for 2 h, respectively. The mixtures were incubated with 30 U of human 5-LOX (Cayman, 60402) containing 2 mM CaCl2 (Sigma-Aldrich), 1 mM ATP (Amresco) and 5 μM 13-HpODE (Cayman) as activators. Also, to validate the importance of residue S565 for N-AS-acetylation of COX2 and production of SPMs, 10 U of the COX2 S565A mutant was used in the above-described method. In addition, to confirm SPM generation in neurons and microglia, these cells were treated with Aβ and sonicated in neuronal and glial culture medium. […] To evaluate the relationship of N-AS and SPM production in microglia, microglia were isolated from WT, APP/PS1, and APP/PS1 treated with N-AS mice at 9 months of age. The microglia were sonicated and resuspended in microglial culture medium. The supernatants were incubated with 100 μM AA, EPA, and DHA (Cayman) at 37 °C for 2 h. A 50 μl aliquot of the mixture from each cell lysate was added to a 250 μl aliquot of 1 ng ml^−1 of 15S-LXA4-d5 (internal standard, Cayman) methanol solution. After vortexing for 10 min and centrifuging at 15,974×g for 5 min, the supernatant was subjected to the analysis of the lipid mediators using an Agilent 6470 Triple Quad LC-MS/MS system (Agilent) coupled to an Agilent 1290 HPLC system. Chromatographic separation was achieved using a Synergi Polar RP (4 μm, 2.0 mm i.d. × 150 mm, Phenomenex). Analytes were eluted with a mobile phase consisting of water: formic acid (100:0.1 v/v) (phase A) and methanol: formic acid (100:0.1 v/v) (phase B) in gradient elution mode for 23 min a flow rate of 0.2 ml min^−1. The elution gradient was as follows: from 0 to 0.1 min the content of phase A was 37% and the content of phase A was decreased to 10% and maintained for 5.5 min. The content of phase A was increased back to 37% at 6.0 min and maintained for 23 min. Quantification was carried out using MRM in negative ionization mode and collision energy of 10–15 eV. The mass transition from Q1 to Q3 is shown in Supplementary Table 2. In this study, the peak areas for all components were automatically integrated using MassHunter B 06.00.
To confirm the generation and roles of N-AS in neurons, cells from E18 C57BL/6 mice were prepared as previously described. Cortices were dissected and then dissociated followed by incubation in papain (Worthington) at 37 °C for 15 min. Neurons were plated on poly-L-lysine-coated coverslips with neuronal culture medium, serum-free Neurobasal medium (Gibco) containing 2% B27 supplements (Gibco), 1 mM Glutamax supplement (Gibco), and 100 U ml^−1 streptomycin/ 100 U ml^−1 penicillin (Gibco) at 37 °C in a humidified atmosphere of 5% CO2. […] Primary astrocyte cultures were prepared from C57BL/6 mice as described previously. In brief, after removal of the meninges, postnatal day 7 (P7) mouse brain tissues were minced and incubated in a rocking water bath at 37 °C for 30 min in the presence of 0.25% trypsin-EDTA (Sigma-Aldrich). Enzyme-digested dissociated cells were triturated with astrocyte-specific medium (DMEM/F12 containing 10% FBS and 1% penicillin-streptomycin) and centrifuged at 155×g for 8 min. The pellet was resuspended in astrocyte-specific medium and passed through a 40-μm cell strainer. […]

| Molecule | 15R-LxA4 (Fig 3i) (Ab + supplement) | RvD1 (Fig 3i) (Ab + supplement) | RvE1 (Fig 3i) (Ab + supplement) | 15R-LxA4 (Fig 3i) (Ab, no supplement) | RvD1 (Fig 3i) (Ab, no supplement) | RvE1 (Fig 3i) (Ab, no supplement) |
| --- | --- | --- | --- | --- | --- | --- |
| CC(=O)SCCNC(=O)CCNC(=O)[C@H](O)C(C)(C)COP(=O)(O)OP(=O)(O)OC[C@H]1O[C@@H](n2cnc3c(N)ncnc32)[C@H](O)[C@@H]1OP(=O)(O)O [Acetyl-CoA, acetyl-CoA] | 0.02549 and 0.02793 and 0.0321 and 0.02233 and 0.02865 and 0.02722 | 0.01313 and 0.01214 and 0.01403 and 0.01264 and 0.01308 and 0.01333 | 0.01432 and 0.01422 and 0.01286 and 0.01427 and 0.01354 and 0.01357 | – | – | – |
| CCCCCCCCCCCCC/C=C/[C@@H](O)[C@H](CO)NC(C)=O [N-AS, N-((2S,3R,E)-1,3-Dihydroxyoctadec-4-en-2-yl)acetamide] | 3.35 and 3.4991 and 3.7074 and 3.111 and 3.589 and 3.409 | 0.555 and 0.7676 and 0.6961 and 0.6613 and 0.7318 and 0.6787 | 3.2 and 3.853 and 3.712 and 3.527 and 3.7827 and 3.619 | – | – | – |
| CCCCCCCCCCCCC/C=C/[C@@H](O)[C@@H](N)CO [Sph, sphingosine] | 0.02593 and 0.02461 and 0.02134 and 0.02662 and 0.02525 and 0.02398 | 0.01101 and 0.01211 and 0.01321 and 0.01156 and 0.01266 and 0.01239 | 0.01121 and 0.01127 and 0.01125 (2×) and 0.01124 and 0.01126 | – | – | – |
| Ab: Aβ 1–42 (Invitrogen, 03112) used to induce an AD environment in cells | – | – | – | 0.02346 and 0.02267 and 0.02051 and 0.02367 and 0.02325 and 0.02209 | 0.01315 and 0.01104 and 0.01107 and 0.0121 and 0.01106 and 0.01158 | 0.0152 and 0.01424 and 0.01723 and 0.01472 and 0.01573 and 0.01598 |
| B1 | 3.266 and 3.3679 and 3.485 and 3.078 and 3.454 and 3.282 | 0.5366 and 0.8616 and 0.7359 and 0.6991 and 0.7987 and 0.7175 | 3.815 and 3.7466 and 3.98 and 3.781 and 3.863 and 3.88 | – | – | – |
